Consider six compounds from ChEMBL document CHEMBL5465560, “Selectivity Literature for EUbOPEN Chemogenomic Library” (2024).

Structures are written as SMILES. Some results are limits rather than exact numbers.

Assay [1] concerns the target Mitogen-activated protein kinase kinase kinase 1 (Homo sapiens, UniProt Q13233). The experiment in a line: Selectivity interaction (KinomeScan (DiscoverX)) EUB0000092b MAP3K1. Conditions: at 10 µM.
The target of assay [2] is T1, Mitogen-activated protein kinase 15 (Homo sapiens) (UniProt Q8TD08).
T1 sequence (whole entry): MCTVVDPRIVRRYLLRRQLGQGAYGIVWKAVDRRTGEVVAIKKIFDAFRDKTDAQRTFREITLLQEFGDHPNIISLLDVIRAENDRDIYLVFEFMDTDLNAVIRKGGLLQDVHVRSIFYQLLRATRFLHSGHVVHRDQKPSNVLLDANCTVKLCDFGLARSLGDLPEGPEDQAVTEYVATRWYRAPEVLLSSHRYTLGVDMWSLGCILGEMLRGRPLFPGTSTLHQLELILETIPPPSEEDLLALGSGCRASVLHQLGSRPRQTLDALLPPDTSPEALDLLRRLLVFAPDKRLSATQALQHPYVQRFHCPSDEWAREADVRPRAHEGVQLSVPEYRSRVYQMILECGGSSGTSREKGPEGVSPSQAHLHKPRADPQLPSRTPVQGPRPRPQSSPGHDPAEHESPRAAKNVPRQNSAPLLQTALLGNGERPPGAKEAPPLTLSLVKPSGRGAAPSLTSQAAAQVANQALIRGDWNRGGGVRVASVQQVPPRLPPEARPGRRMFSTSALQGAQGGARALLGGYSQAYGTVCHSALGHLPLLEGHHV
The assay is described as follows: Selectivity interaction (LanthaScreen Eu Kinase Binding Assay) EUB0001632a MAPK15. The settings on record: at 10 µM. Background: Time-resolved FRET reads energy transfer from a long-lived donor to a nearby acceptor.

Assay [3] addresses Histone-lysine N-methyltransferase SUV39H2 (Homo sapiens) (UniProt Q9H5I1). Conditions: at 10 µM.
Assay [4] deals with T2, Mitogen-activated protein kinase kinase kinase 6 (Homo sapiens) (UniProt O95382).
T2 sequence (whole entry): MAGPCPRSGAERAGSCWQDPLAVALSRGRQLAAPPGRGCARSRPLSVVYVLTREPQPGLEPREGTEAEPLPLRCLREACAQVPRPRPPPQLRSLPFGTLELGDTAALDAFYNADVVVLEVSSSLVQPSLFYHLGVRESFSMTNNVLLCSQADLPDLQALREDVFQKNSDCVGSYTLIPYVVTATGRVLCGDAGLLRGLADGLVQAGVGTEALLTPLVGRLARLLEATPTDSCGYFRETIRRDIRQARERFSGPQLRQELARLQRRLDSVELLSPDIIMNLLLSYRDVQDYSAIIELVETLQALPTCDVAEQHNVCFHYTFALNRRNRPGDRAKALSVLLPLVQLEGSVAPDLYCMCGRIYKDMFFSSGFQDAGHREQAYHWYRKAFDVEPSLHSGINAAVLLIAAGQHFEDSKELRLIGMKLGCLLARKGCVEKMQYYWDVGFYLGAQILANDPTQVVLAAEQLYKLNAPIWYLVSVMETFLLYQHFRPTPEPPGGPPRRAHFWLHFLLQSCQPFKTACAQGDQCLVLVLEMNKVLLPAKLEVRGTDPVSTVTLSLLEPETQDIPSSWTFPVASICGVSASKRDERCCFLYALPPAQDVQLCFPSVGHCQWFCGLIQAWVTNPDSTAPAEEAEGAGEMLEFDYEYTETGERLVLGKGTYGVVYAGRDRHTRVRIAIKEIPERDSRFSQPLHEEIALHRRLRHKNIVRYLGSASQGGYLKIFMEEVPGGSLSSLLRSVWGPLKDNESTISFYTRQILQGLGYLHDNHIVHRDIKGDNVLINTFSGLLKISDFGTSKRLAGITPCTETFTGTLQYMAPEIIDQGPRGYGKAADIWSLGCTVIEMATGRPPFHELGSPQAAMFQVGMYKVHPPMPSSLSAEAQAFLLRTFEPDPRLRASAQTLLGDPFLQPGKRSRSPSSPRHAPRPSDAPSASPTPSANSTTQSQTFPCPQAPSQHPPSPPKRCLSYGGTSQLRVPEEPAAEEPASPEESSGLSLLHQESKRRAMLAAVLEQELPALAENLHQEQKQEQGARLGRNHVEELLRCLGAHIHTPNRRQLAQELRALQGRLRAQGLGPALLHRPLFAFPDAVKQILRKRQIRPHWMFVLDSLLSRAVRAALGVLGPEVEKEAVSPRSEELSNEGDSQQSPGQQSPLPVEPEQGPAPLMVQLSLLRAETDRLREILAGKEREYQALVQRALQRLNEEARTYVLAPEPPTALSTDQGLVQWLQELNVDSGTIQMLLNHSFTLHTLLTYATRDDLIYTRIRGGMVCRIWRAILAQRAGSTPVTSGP
The assay is described as follows: Selectivity interaction (ActivX KiNativ screen (kinase selectivity in THP-1 cell lysates)) EUB0000639a MAP3K6. In kind it is subcellular. Conditions: lysate, at 5 µM.

Assay [5] has as its target T3, Ephrin type-A receptor 8 (Homo sapiens) (UniProt P29322).
T3 sequence (whole entry): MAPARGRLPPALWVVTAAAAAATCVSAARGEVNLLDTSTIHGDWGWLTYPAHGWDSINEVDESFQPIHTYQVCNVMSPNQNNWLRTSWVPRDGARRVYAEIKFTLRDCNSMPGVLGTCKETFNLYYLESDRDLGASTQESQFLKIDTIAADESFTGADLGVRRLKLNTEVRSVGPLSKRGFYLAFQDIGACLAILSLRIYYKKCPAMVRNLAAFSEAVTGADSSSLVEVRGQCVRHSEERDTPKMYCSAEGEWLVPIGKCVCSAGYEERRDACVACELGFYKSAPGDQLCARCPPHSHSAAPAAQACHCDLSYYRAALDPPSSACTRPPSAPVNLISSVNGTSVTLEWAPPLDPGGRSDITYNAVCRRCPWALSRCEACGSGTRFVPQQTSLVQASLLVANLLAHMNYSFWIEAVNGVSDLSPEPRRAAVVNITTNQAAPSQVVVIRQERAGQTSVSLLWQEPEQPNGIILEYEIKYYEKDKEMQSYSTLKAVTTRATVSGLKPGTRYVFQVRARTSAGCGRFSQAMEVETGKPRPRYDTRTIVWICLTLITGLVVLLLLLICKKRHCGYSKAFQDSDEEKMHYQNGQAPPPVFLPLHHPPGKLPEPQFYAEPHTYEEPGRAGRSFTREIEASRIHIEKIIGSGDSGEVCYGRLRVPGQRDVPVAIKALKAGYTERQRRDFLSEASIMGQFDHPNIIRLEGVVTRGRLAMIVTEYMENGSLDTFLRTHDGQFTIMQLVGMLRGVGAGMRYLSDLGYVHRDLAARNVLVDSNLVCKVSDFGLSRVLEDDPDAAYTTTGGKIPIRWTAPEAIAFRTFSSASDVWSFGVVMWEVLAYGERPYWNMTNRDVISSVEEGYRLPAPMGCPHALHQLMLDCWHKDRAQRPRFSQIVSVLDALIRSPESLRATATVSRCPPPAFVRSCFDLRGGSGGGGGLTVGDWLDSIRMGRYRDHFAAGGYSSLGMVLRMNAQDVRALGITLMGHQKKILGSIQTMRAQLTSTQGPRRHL
The experiment in a line: Selectivity interaction (KinomeScan (DiscoverX)) EUB0000229b EPHA8. Conditions: at 10 µM.

Assay [6] relates to Epidermal growth factor receptor (Homo sapiens), P00533 [G719C]. The settings on record: at 10 µM.
Epidermal growth factor receptor (Homo sapiens), P00533 [G719C], sequence (P00533 whole entry G719C): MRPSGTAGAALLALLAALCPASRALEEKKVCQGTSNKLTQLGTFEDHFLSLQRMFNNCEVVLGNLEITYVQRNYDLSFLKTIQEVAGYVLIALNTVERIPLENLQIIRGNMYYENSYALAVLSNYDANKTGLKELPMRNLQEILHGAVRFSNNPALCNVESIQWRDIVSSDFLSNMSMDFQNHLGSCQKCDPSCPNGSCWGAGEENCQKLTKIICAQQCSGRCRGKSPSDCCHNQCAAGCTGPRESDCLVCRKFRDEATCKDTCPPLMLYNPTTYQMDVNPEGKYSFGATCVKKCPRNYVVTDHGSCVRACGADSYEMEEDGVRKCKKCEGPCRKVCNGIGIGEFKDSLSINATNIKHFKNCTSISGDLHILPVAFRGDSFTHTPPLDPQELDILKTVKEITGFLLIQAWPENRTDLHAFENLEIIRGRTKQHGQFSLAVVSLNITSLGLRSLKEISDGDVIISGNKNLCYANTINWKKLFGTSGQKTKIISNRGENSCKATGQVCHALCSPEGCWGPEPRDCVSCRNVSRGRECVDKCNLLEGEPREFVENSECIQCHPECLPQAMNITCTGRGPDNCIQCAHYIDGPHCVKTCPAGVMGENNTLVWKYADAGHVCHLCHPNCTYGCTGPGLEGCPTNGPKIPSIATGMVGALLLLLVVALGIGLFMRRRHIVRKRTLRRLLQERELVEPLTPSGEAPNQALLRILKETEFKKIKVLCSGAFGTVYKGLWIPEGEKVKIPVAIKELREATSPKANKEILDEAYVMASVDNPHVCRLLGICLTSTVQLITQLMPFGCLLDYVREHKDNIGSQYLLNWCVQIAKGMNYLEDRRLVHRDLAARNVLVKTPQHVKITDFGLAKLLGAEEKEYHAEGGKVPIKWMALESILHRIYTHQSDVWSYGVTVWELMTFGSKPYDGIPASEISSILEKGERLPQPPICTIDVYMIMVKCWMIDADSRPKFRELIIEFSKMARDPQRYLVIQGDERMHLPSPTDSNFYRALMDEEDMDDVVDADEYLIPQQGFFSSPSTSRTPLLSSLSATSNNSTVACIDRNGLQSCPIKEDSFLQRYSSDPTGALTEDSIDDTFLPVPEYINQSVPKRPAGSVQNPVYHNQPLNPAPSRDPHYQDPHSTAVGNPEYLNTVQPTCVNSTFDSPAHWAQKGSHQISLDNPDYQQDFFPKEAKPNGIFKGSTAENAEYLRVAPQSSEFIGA

Mitogen-activated protein kinase kinase kinase 1, sequence (Q13233 whole entry): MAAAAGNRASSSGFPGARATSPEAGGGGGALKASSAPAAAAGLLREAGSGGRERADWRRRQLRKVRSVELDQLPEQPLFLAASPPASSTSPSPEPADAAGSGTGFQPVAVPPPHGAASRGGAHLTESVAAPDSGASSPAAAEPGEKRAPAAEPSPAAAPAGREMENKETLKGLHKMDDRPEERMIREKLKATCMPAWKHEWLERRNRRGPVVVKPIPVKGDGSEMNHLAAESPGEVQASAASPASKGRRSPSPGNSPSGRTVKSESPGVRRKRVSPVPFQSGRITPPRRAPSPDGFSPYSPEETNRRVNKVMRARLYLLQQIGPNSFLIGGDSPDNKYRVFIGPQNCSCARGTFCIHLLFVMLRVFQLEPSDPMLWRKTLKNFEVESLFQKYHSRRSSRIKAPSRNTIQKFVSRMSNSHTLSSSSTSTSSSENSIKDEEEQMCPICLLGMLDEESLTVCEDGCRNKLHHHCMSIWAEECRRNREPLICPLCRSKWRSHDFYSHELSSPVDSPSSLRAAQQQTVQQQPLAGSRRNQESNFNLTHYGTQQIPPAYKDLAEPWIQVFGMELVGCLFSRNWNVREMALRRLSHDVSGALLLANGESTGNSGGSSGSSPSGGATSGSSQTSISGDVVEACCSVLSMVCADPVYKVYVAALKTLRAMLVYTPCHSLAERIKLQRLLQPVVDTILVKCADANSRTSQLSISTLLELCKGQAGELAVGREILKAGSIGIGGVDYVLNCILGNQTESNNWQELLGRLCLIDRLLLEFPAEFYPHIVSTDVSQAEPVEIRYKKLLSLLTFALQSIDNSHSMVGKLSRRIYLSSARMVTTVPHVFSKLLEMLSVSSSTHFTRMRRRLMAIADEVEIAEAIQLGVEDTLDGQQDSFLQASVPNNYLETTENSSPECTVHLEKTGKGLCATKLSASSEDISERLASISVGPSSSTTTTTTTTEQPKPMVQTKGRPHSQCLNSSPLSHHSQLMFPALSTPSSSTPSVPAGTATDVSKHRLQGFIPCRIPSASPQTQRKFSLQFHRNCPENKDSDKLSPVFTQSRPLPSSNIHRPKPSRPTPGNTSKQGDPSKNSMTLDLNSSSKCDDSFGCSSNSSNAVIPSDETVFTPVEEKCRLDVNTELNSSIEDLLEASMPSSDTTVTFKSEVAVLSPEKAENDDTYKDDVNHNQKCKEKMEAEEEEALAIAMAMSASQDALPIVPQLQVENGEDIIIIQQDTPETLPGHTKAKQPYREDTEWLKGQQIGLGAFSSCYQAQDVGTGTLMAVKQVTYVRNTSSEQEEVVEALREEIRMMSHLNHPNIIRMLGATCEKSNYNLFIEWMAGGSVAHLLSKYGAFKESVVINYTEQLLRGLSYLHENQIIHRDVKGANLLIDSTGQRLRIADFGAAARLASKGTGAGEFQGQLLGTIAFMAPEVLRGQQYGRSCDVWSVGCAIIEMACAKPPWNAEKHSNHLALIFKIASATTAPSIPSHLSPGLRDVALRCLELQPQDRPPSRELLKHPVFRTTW
Histone-lysine N-methyltransferase SUV39H2 (Homo sapiens), sequence (Q9H5I1 whole entry): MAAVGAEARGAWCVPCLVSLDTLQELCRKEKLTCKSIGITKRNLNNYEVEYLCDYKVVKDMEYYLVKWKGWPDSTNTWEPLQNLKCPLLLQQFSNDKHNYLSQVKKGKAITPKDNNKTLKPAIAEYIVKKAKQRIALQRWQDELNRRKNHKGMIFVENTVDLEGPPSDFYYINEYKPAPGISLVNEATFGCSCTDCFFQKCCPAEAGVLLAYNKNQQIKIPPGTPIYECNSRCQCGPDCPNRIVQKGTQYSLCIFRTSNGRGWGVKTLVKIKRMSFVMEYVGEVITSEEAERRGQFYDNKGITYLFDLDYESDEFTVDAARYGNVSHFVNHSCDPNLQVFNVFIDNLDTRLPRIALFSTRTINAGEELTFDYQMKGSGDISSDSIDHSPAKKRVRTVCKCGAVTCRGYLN

`CCC(=O)N1CCN(c2ccc(-n3c(=O)ccc4cnc5ccc(-c6cnc7ccccc7c6)cc5c43)cc2C(F)(F)F)CC1` gave a % of control in assay [1] of 92%. `Cn1cc(-n2cnc3c(NCc4nc5cc(Cl)c(Cl)cc5[nH]4)nc(N4CCOCC4)nc32)cn1`: the % of inhibition in assay [2] is -42.8%. On to `CNCCN1CCC(c2cc(CN(C)C(=O)c3cccc(Oc4ccccc4)c3)ccn2)CC1`, for which the % activity in assay [3] was over 90%. Take `CC[C@@H]1[C@H](F)C(=O)N[C@@H]1COc1nccc2cc(C(N)=O)c(OC)cc12` [ZIMLOVISERTIB]: the % of inhibition in assay [4] is -27%. In assay [5], `COc1cc(N(C)c2ccnc3ccc(C(F)(F)F)cc23)cc(OC)c1OC` gave a % binding of 94%. `COCC(=O)NC/C=C/c1ccc2ncnc(Nc3ccc(Oc4ccc(C)nc4)c(C)c3)c2c1` [CP-724714] gave a % of control in assay [6] of 0%.
